Assay results reported in PubChem BioAssay (NCI).
“And” between values parts separate entries of the source, which are not always exact repeats. Equal entries are not always repeated.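 The compound was tested at five concentrations on cells cultured in 96-well plates, with a 48-hour exposure period. GI50 = concentration required for 50% inhibition of growth. TGI is the concentration that stops growth completely.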

Tests used:
Experiment in all cases: NCI tumour cell line growth inhibition, 48 h
[1] = system: NCI-H23 lung
[2] = system: EKVX NSCLC
[3] = system: NCI-H522 lung
[4] = system: SNB-75 CNS
[5] = system: COLO 205 colon
[6] = system: NCI-H460 lung
[7] = system: HCC-2998 colon
[8] = system: HS 578T breast
[9] = system: U251 CNS
[10] = system: KM12 colon

Compound | GI50 [1] | TGI [1] | GI50 [2] | TGI [2] | GI50 [3] | TGI [3] | GI50 [4] | TGI [4] | GI50 [5] | TGI [5] | GI50 [6] | TGI [6] | GI50 [7] | TGI [7] | GI50 [8] | TGI [8] | GI50 [9] | TGI [9] | GI50 [10] | TGI [10]
CC1=C(/C=C/C(C)=C/C=C/C(C)=C/C=N/NC(=S)NC(=S)N/N=C/C=C(C)/C=C/C=C(C)/C=C/C2=C(C)CCCC2(C)C)C(C)(C)CCC1 | 1.76 µM and 1.17 µM | 7.28 µM and 4.37 µM | 3.97 µM and 1.66 µM | 11.3 µM and 7.77 µM | 0.286 µM and 0.181 µM | 1.07 µM and 0.795 µM | 2.06 µM and 1.16 µM | 6.75 µM and 3.28 µM | 1.46 µM and 0.903 µM | 5.14 µM and 1.71 µM | 2.35 µM and 1.66 µM | 8.68 µM and 6.36 µM | 6.73 µM and 4.07 µM | 13.5 µM and 11.8 µM | 3.25 µM and 1.91 µM | 18.7 µM and 9.97 µM | 2.17 µM and 1.58 µM | 7.18 µM and 4.62 µM | 2.74 µM and 1.32 µM | 9.21 µM and 3.97 µM
Nc1nc(N)c(C=Nc2ccc(Br)cc2)c(Nc2ccc(Br)cc2)n1 | 10 µM | 27.3 µM | 10.5 µM | 24.1 µM | 8.2 µM | 33.2 µM | 5.02 µM | 18.6 µM | 14.5 µM | 34.6 µM | 4.39 µM | 20.1 µM | 3.89 µM | 14 µM | 8.96 µM | 26.8 µM | 12 µM | 30.1 µM | 4.22 µM | 18.4 µM
COc1ccc(/C=c2\sc3n(c2=O)C2C(NN=3)N(C)C(=O)N2C)cc1 (stereo not given) | 1.75 µM | > 100 µM | 1.72 µM | > 100 µM | 0.877 µM | > 100 µM | 1.17 µM | 6.77 µM | 1.09 µM | > 100 µM | 0.933 µM | > 100 µM | 1.5 µM | > 100 µM | 0.659 µM | 8.96 µM | 1.44 µM | > 100 µM | 0.588 µM | > 100 µM
COC1=C(C)C(=O)c2c(c(CCCl)c3n2CCC3O)C1=O (stereo not given) | 0.133 µM | 0.799 µM | 2.3 µM | 7.69 µM | 0.224 µM | 1.17 µM | 0.191 µM | 0.628 µM | 0.203 µM | 0.72 µM | 0.178 µM | 2.79 µM | 0.348 µM | 1.57 µM | 1.06 µM | 6.65 µM | 0.36 µM | 11.9 µM | 1.37 µM | 6.73 µM
CC(=O)OC1=CC2=CC[C@H]3[C@@H]4CCC(=O)[C@@]4(C)CC(=O)[C@]3(S)[C@@]2(C)CC1 |  | > 100 µM |  | > 100 µM |  | 63 µM |  | > 100 µM |  | > 100 µM |  | 69.8 µM |  | 65.1 µM |  | 74.6 µM |  | > 100 µM |  | > 100 µM
CCOc1cc(Br)c(C(C)NC(=O)c2cccc(OC)c2)cc1OCC (stereo not given) | 29.1 µM | > 100 µM |  |  | 6.83 µM | 54.4 µM | 6.04 µM | 51.7 µM | 8.28 µM | 37.9 µM | 6.02 µM | > 81.5 µM | 33.7 µM | > 100 µM | 15.5 µM | > 96.6 µM | 11.4 µM | > 100 µM | 7.32 µM | > 100 µM
CN(COC(=O)c1ccccc1)c1nc(N(C)COC(=O)c2ccccc2)nc(N(C)COC(=O)c2ccccc2)n1 |  | > 100 µM |  | > 100 µM |  | > 100 µM |  | > 100 µM |  | > 100 µM |  | > 100 µM |  | > 100 µM |  | > 100 µM |  | > 83.7 µM |  | > 100 µM
O=[N+]([O-])c1ccc(C2CC(c3ccccc3Cl)=Nc3ccccc3S2=O)cc1 (stereo not given) |  | 11.7 µM |  | 35.4 µM |  | 3.28 µM |  | 21.4 µM |  | 22.1 µM |  | 17.9 µM |  | 6.85 µM |  | 7.46 µM |  |  |  | 9.97 µM
ON(Cc1ccccc1)C(=S)c1ccccc1 |  | 47.1 µM |  | > 100 µM |  | 28 µM |  | > 100 µM |  | > 93.8 µM |  | 22.3 µM |  | 98.1 µM |  | > 100 µM |  | 61 µM |  | > 63.6 µM
Cc1cc2cc3ccc(N(C)C)cc3nc2cc1N | 0.49 µM | 4.42 µM | 0.273 µM | 3.11 µM | 0.612 µM | 2.4 µM | 1.04 µM | 2.3 µM | 0.389 µM | 2.01 µM | 0.234 µM | 0.68 µM | 0.33 µM | 1.34 µM | 0.51 µM | 3.48 µM | 0.312 µM | 1.61 µM | 0.439 µM | 2.18 µM
O=C(O)C1CC2(C1)CC(C(=O)O)C2 (stereo not given) |  | > 100 µM |  | > 100 µM |  | > 100 µM |  | > 100 µM |  | > 100 µM |  | > 100 µM |  | > 100 µM |  | > 100 µM |  | > 100 µM |  | > 100 µM
CCN(Cc1ccc(F)cc1)c1ccc(CO)c(C)c1 | 13.2 µM | 37.1 µM |  |  | 8.52 µM | 22 µM | 4.1 µM | 20.2 µM | 5.7 µM | 19 µM | 11.5 µM | 32.3 µM | 14.6 µM | 29.4 µM | 11.7 µM | 64.8 µM | 12.1 µM | 40.1 µM | 19.6 µM | 45.1 µM
Cc1cc(S(=O)(=O)/N=C/N(C)C)c(SC(=O)c2ccc(Cl)cc2)cc1Cl | 23.2 µM | 56.2 µM | 17.4 µM | 51.1 µM | 47.9 µM | > 100 µM |  |  | 55.9 µM | > 100 µM | 56.5 µM | > 100 µM | 17.9 µM | 38.2 µM | 20.7 µM | 65 µM | 27 µM | 71.1 µM | 39.1 µM | > 100 µM
Cc1cn(C2C=CC(CO)O2)c(=O)[nH]c1=O (stereo not given) |  | > 1000 µM |  | > 1000 µM |  | > 1000 µM |  | > 1000 µM |  | > 1000 µM |  |  |  | > 1000 µM |  | > 1000 µM |  | > 1000 µM |  | > 1000 µM
CCN1C(=O)CCCc2c1ccc(Nc1ncc(Cl)c(NC3[C@@H](C(N)=O)[C@@H]4C=C[C@H]3C4)n1)c2OC (stereo not given in full) | 1.56 µM | 9.47 µM |  |  | 1.16 µM | 6.13 µM | 0.619 µM | 6.23 µM | 0.633 µM | 2.48 µM | 0.661 µM | 13.4 µM | 1.69 µM | 3.57 µM | 1.88 µM | 8.26 µM | 1.12 µM | 13.9 µM | 1.87 µM | 13.9 µM
